Measurements as given in ChEMBL document CHEMBL6115028, “An Amazing 30-Year Journey around the DABO Family: A Medicinal Chemistry Lesson on a Versatile Class of Non-nucleoside HIV-1 Reverse Transcriptase Inhibitors” (J Med Chem, 2025).
pEC50, pIC50, pKi: −log10 of the molar value.

Columns and labels:
MT4 [1] = assay: Cytotoxicity against human MT4 cells; type: functional
[2] = system: Human immunodeficiency virus 1; assay: Antiviral activity against wild type HIV-1 IIIB infected in human MT4 cells assessed as protection against virus-induced cytopathic effect incubated for 72 hrs by MTT assay; type: functional, organism-based; settings: Human immunodeficiency virus 1, IIIB, MT4, 72 h
MT4 [3] = assay: Cytotoxicity against human MT4 cells assessed as reduction in cell viability after 5 days by MTT assay; type: functional; settings: MT4, 120 h, time 5 day
[4] = system: Human immunodeficiency virus 1; assay: Antiviral activity against HIV-1 infected in human MT4 cells assessed as reduction in virus-induced cytopathic effect incubated for 5 days by Cell Titer-Glo luminescent assay; type: functional, organism-based; settings: Human immunodeficiency virus 1, MT4, 120 h
[5] = molecular target: T1, Human immunodeficiency virus type 1 reverse transcriptase (Human immunodeficiency virus 1, UniProt Q72547); assay: Inhibition of recombinant HIV-1 reverse transcriptase associated RNA-dependent DNA polymerase activity incubated for 30 mins by liquid scintillation method
[6] = Selectivity index, ratio of CC50 for human MT4 cells to EC50 for antiviral activity against HIV1 infected in human MT4 cells; type: toxicity, cell-based; settings: read-out: Ratio CC50/EC50
[7] = system: Human immunodeficiency virus 1; assay: Antiviral activity against wild type HIV-1 IIIB infected in human MT4 cells assessed as reduction in cytopathic effect measured after 4 days by MTT assay; type: functional, organism-based; settings: Human immunodeficiency virus 1, IIIB, MT4, 96 h
[8] = system: Human immunodeficiency virus 1; assay: Antiviral activity against wild type HIV-1 IIIB harboring Y181C/K103N double mutant infected in human MT4 cells assessed as reduction in cytopathic effect measured after 4 days by MTT assay; type: functional, organism-based; settings: Human immunodeficiency virus 1, IIIB, MT4, 96 h
[9] = system: Human immunodeficiency virus 1; assay: Antiviral activity against […] infected in human MT4 cells assessed as reduction in cytopathic effect measured after 4 days by MTT assay; type: functional, organism-based; settings: Human immunodeficiency virus 1, IIIB, MT4, 96 h
MT4 [10] = assay: Cytotoxicity against human MT4 cells assessed as reduction in cell viability incubated for 4 days by MTT assay; type: functional; settings: MT4, 96 h, time 4 day
[11] = system: Human immunodeficiency virus 1; assay: Antiviral activity against wild type HIV-1 NL4-3 infected in human MT4 cells assessed as reduction in viral replication measured for 72 hrs by ELISA analysis; type: functional, organism-based; settings: Human immunodeficiency virus 1, NL4-3, MT4, 72 h
[12] = system: Human immunodeficiency virus 1; assay: Antiviral activity against HIV-1 NL4-3 harboring infected Y181C mutant infected in human MT4 cells assessed as reduction in viral replication; type: functional, organism-based; settings: Human immunodeficiency virus 1, NL4-3, MT4
[13] = system: Human immunodeficiency virus 1; assay: Antiviral activity against HIV-1 NL4-3 harboring infected Y188L mutant infected in human MT4 cells assessed as reduction in viral replication; type: functional, organism-based; settings: Human immunodeficiency virus 1, NL4-3, MT4
[14] = system: Human immunodeficiency virus 1; assay: Antiviral activity against HIV-1 NL4-3 harboring infected K103N mutant infected in human MT4 cells assessed as reduction in viral replication; type: functional, organism-based; settings: Human immunodeficiency virus 1, NL4-3, MT4
MT2 = assay: Cytotoxicity against human MT2 cells; type: functional
[15] = system: Human immunodeficiency virus 1; assay: Antiviral activity against HIV-1 3B infected in human MT4 cells assessed as reduction in viral replication incubated for 5 days by MTT assay; type: functional, organism-based; settings: Human immunodeficiency virus 1, 3B, MT4, 120 h
MT4 [16] = assay: Cytotoxicity against human MT4 cells assessed as reduction in cell growth incubated for 5 days by MTT assay; type: functional; settings: MT4, 120 h, time 5 day
[17] = system: Human immunodeficiency virus 1; assay: Antiviral activity against HIV-1 harboring RT K103N mutant infected in human MT4 cells assessed as protection against virus-induced cytopathic effect measured for 5 days by MTT assay; type: functional, organism-based; settings: Human immunodeficiency virus 1, MT4, 120 h
[18] = system: Human immunodeficiency virus 1; assay: Antiviral activity against HIV-1 infected in human MT4 cells; type: functional, organism-based; settings: Human immunodeficiency virus 1, MT4
Reverse transcriptase [19] = molecular target: T2, Reverse transcriptase (Human immunodeficiency virus 1, UniProt Q9WKE8, K103N); assay: Inhibition of HIV-1 Reverse transcriptase K103N mutant
[20] = system: Human immunodeficiency virus 1; assay: Antiviral activity against wild type HIV-1 NL4-3 infected in human MT4 cells assessed as reduction in viral replication; type: functional, organism-based; settings: Human immunodeficiency virus 1, NL4-3, MT4; read-out: EC50
[21] = molecular target: T1, Human immunodeficiency virus type 1 reverse transcriptase; assay: Inhibition of wild type HIV-1 Reverse transcriptase
Reverse transcriptase [22] = molecular target: T2, Reverse transcriptase; assay: Binding affinity to HIV-1 reverse transcriptase K103N mutant assessed as inhibition constant

In the case of `Cc1cc(C)cc(Cc2nc(Sc3cccnc3)[nH]c(=O)c2C)c1`, the CC50 (MT4 [1]) was 55 µM and the pEC50 [2] was 5.80.
With `CCC(C)Oc1nc(Sc2ccccc2)nc(N)c1C` (configuration not stated) the CC50 (MT4 [3]) was > 364 µM, the pEC50 [4] was 5.10 and the pIC50 [5] was 4.55. For the same molecule, the selectivity ratio [6] was > 45.
For `C=C(c1nc(N(C)C)[nH]c(=O)c1C)c1c(F)cccc1F`, the pEC50 [7] was 6.70, the pEC50 [8] was < 4.00 and the pEC50 [9] was 4.36. For the same molecule, the CC50 (MT4 [10]) was > 100 µM.
In the case of `CSc1nc(N)c(C)c(C(=O)c2ccc(F)cc2)n1`, the pEC50 [11] was 6.24, the pEC50 [12] was 6.68 and the pEC50 [13] was 6.68. The pEC50 [14] was 5.23.
For `CSc1nc(C(C)C)c(CC2CCCCC2)n1COCc1ccccc1`, the CC50 (MT2) was 31 µM.
Work on `Cc1c(C(Br)c2c(F)cccc2F)nc(N(C)C)[nH]c1=O` (configuration not stated) yielded a pEC50 [7] of 6.70, a pEC50 [8] of 4.37 and a pEC50 [9] of 4.37. It also gave a CC50 (MT4 [10]) of 43 µM.
In the case of `CCC(C)Sc1nc(Cc2cc(C)cc(C)c2)c(C)c(=O)[nH]1` (configuration not stated), the pEC50 [15] was 6.22 and the CC50 (MT4 [16]) was 86 µM.
For `O=C1c2ccccc2C(=O)N1CCSc1nc(Cc2c(F)cccc2F)cc(=O)[nH]1`, the pEC50 [17] was 4.00 and the CC50 (MT4 [1]) was > 100 µM.
For `Cc1c(C2(c3c(F)cccc3F)CC2)nc(SC2CCCC2)[nH]c1=O`, the pEC50 [18] was 8.30, the selectivity ratio [6] was 2660 and the CC50 (MT4 [1]) was 14 µM.
With `Cc1cc(=O)[nH]c(SCCN2C(=O)c3ccccc3C2=O)n1` the pEC50 [17] was 5.72 and the CC50 (MT4 [1]) was 117 µM.
`CCc1nc(SC)n(COCc2ccccc2)c1CC1CCCCC1` gave a CC50 (MT2) of 25 µM.
With `CCC(C)Sc1nc(Cc2cc(C)cc(C)c2)c(I)c(=O)[nH]1` (configuration not stated) the pEC50 [15] was 5.37 and the CC50 (MT4 [16]) was 144 µM.
In the case of `CCC(C)Oc1nc(Cc2cc(C)cc(C)c2)c(C)c(=O)[nH]1` (configuration not stated), the CC50 (MT4 [3]) was > 333 µM, the pEC50 [4] was 6.10 and the pIC50 [5] was 5.70. The selectivity ratio [6] was > 416.
In the case of `Cc1c(C(F)c2c(F)cccc2F)nc(N(C)C)[nH]c1=O` (configuration not stated), the pEC50 [7] was 7.70, the pEC50 [8] was < 4.00 and the pEC50 [9] was 5.55. The CC50 (MT4 [10]) was > 100 µM.
With `CCOCn1c(SC)nc(C(C)C)c1CC1CCCCC1` the CC50 (MT2) was 39 µM.
With `CSc1nc(C(C)C)c(Cc2ccccc2)n1COCc1ccccc1` the CC50 (MT2) was 29 µM.
With `COc1ccc(C2CC2CN(C)c2nc(C(C)c3c(F)cccc3F)cc(=O)[nH]2)cc1` (configuration not stated) the pIC50 (Reverse transcriptase [19]) was 6.01, the pEC50 [12] was < 5.30 and the pEC50 [20] was 8.52. For the same molecule, the pEC50 [13] was 5.53 and the pEC50 [14] was 7.15.
With `Cc1cc(C)cc(Cc2nc(Sc3cccc4ccccc34)[nH]c(=O)c2C)c1` the CC50 (MT4 [1]) was > 100 µM and the pEC50 [2] was 5.80.
With `Cc1cccc(Cc2cc(=O)[nH]c(OC3CCCCC3)n2)c1` the CC50 (MT4 [3]) was > 335 µM, the pEC50 [4] was 6.10 and the pIC50 [5] was 5.74. For the same molecule, the selectivity ratio [6] was > 418.
In the case of `CCCSc1nc(C2(c3c(F)cccc3F)CC2)c(C)c(=O)[nH]1`, the pEC50 [18] was 8.40, the selectivity ratio [6] was 3000 and the CC50 (MT4 [1]) was 12 µM.
With `COc1ccc(Cn2cc(CSc3nc(Cc4c(Cl)cccc4Cl)c(C)c(=O)[nH]3)nn2)cc1` the pIC50 [21] was 5.34 and the CC50 (MT4 [1]) was 29 µM.
For `CC(c1cc(=O)[nH]c(N(C)C)n1)c1c(F)cccc1Cl` (configuration not stated), the pEC50 [11] was 8.15 and the pKi (Reverse transcriptase [22]) was 6.00.
For `Cc1c(C(O)c2c(F)cccc2F)nc(N(C)C)[nH]c1=O` (configuration not stated), the pEC50 [7] was 6.00, the pEC50 [8] was < 4.30 and the pEC50 [9] was < 4.30. It also gave a CC50 (MT4 [10]) of 50 µM.
With `Cc1c(C(=O)c2c(F)cccc2F)nc(N(C)C)[nH]c1=O` the pEC50 [7] was 6.52, the pEC50 [8] was < 4.00 and the pEC50 [9] was 4.03. The CC50 (MT4 [10]) was > 100 µM.
